Results from patent publication US10975068B2, “6-aminopyridin-3-yl thiazoles as modulators of RORγT” (Janssen Pharmaceutica NV, priority 2016, dated 2021).
Where two headings read alike, the source gives them in different places.

Assays:
[1] = molecular target: human RORγt ligand binding domain (RORγt LBD) (Homo sapiens (Human), UniProt P51449); test: RORγt ThermoFluor® assay (thermal shift binding); details: read-out: ThermoFluor® Assay, Kd
In short: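 His-tagged human RORγt LBD (0.065 mg/mL) with 60 μM 1,8-ANS in 100 mM Hepes pH 7.0, 10 mM NaCl, 2.5 mM GSH, 0.002% Tween-20 was heated at 1 °C/min.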

[2] = system: IL-17 production by CD4 T cells; test: Human Th17 assay; assay type: cell-based
From the text: The human Th17 assay tests the effect of RORγt modulatory compounds on IL-17 production by CD4 T cells under conditions which favor Th17 differentiation. Total CD4^+ T cells were isolated from the peripheral blood mononuclear cells (PBMC) of healthy donors using a CD4^+ T cell isolation kit II, following the manufacturer's instructions (Miltenyi Biotec). Cells were resuspended in a medium of RPMI-1640 supplemented with 10% fetal bovine serum, penicillin, streptomycin, glutamate, and β-mercaptoethanol and were added to 96-well plates at 1.5×10^5 per 100 μL per well. 50 μL of compound at titrated concentrations in DMSO were added into each well at final DMSO concentration at 0.2%. Cells were incubated for 1 hour, then 50 μL of Th17 cell differentiation medium was added to each well. The final concentrations of antibodies and cytokines (R&D Systems) in differentiation medium were: 3×10^6/mL anti-CD3/CD28 beads (prepared using human T cell activation/expansion kit, Miltenyi Biotec), 10 μg/mL anti-IL4, 10 μg/mL anti-IFNγ, 10 ng/mL IL1β, 10 ng/mL IL23, 50 ng/mL IL6, 3 ng/mL TGFβ and 20 U/mL IL2. Cells were cultured at 37° C. and 5% CO2 for 3 days. Supernatants were collected and the accumulated IL-17 in culture was measured by using MULTI-SPOT® Cytokine Plate following manufacture's instruction (Meso Scale Discovery). The plate was read using Sector Imager 6000, and IL-17 concentration was extrapolated from the standard curve. The IC50s were determined by GraphPad.

[3] = read-out: Human Th17 Assay, IC50
[4] = read-out: Human Th17 Assay, IC50 (μM)

Sequence of human RORγt ligand binding domain (RORγt LBD) (P51449 other isoform, or with tags, fused parts or gaps): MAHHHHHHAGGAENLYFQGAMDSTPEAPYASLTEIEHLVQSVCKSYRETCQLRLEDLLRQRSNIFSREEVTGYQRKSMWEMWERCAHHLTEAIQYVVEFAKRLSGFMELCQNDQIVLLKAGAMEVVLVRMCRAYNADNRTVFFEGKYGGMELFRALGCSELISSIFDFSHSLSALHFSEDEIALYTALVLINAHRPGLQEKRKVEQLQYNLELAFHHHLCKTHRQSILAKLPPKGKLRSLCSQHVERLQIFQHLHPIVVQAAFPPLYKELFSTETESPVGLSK

Compound | Kd [1] [nM] | IC50 [2, 3] [µM] | IC50 [2, 4] [µM]
O=C(N[C@H]1C[C@H](O)C1)c1nc(C(=O)N2C3CCC2CC3)c(-c2cnc(N[C@@H](C3CC3)C(F)(F)F)cc2C(F)F)s1 [Example 318, 4-((1s,4s)-7-Azabicyclo[2.2.1]heptane-7-carbonyl)-5-(6-(((S)-1-cyclopropyl-2,2,2-trifluoroethyl)amino)-4-(difluoromethyl)pyridin-3-yl)-N-((1r,3S)-3-hydroxycyclobutyl)thiazole-2-carboxamide] | 8.1 | 0.017 | –
CC(C)(O)CNC(=O)c1nc(C(=O)N2C3CCC2CC3)c(-c2cnc(NC3(C)CCC3)cc2C(F)F)s1 [Example 169, 4-((1s,4s)-7-Azabicyclo[2.2[1]heptane-7-carbonyl)-5-(4-(difluoromethyl)-6-((1-methylcyclobutyl)amino)pyridine-3-yl)-N-(2-hydroxy-2-methylpropyl))thiazole-2-carboxamide] | 2.7 | – | 0.034
C[C@H](Nc1cc(C(F)(F)F)c(-c2sc(C(=O)NCC(C)(C)O)nc2C(=O)N2CCC[C@@H]2C)cn1)C1CC1 [Example 40, 5-(6-(((S)-1-Cyclopropylethyl)amino)-4-(trifluoromethyl)pyridin-3-yl)-N-(2-hydroxy-2-methylpropyl)-4-((S)-2-methylpyrrolidine-1-carbonyl)thiazole-2-carboxamide] | 2.8 | 0.056 | –
CC[C@H](Nc1cc(C(F)(F)F)c(-c2sc(C(=O)NCC(C)(C)O)nc2C(=O)N2CCC[C@@H]2C)cn1)C1CC1 (relative stereo) [Example 128, 5-(6-(((S*)-1-Cyclopropylpropyl)amino)-4-(trifluoromethyl)pyridin-3-yl)-N-(2-hydroxy-2-methylpropyl)-4-((S)-2-methylpyrrolidine-1-carbonyl)thiazole-2-carboxamide] | 2.6 | 0.018 | –
C[C@H](Nc1cc(C(F)(F)F)c(-c2sc(C(=O)NCC(C)(C)O)nc2C(=O)N2C3CCC2CC3)cn1)C1CC1 [Example 51, 4-((1s,4s)-7-Azabicyclo[2.2.1]heptane-7-carbonyl)-5-(6-(((S)-1-cyclopropylethyl)amino)-4-(trifluoromethyl)pyridin-3-yl)-N-(2-hydroxy-2-methylpropyl)thiazole-2-carboxamide] | 3.2 | – | 0.021
CC(C)(O)CNC(=O)c1nc(C(=O)N2C3CCC2CC3)c(-c2cnc(NC3(C)CCC3)cc2C(F)(F)F)s1 [Example 140, 4-((1s,4s)-7-Azabicyclo[2.2.1]heptane-7-carbonyl)-N-(2-hydroxy-2-methylpropyl)-5-(6-((1-methylcyclobutyl)amino)-4-(trifluoromethyl)pyridin-3-yl)thiazole-2-carboxamide] | 1.7 | – | 0.011
CC(C)(O)CNC(=O)c1nc(C(=O)N2C3CCC2CC3)c(-c2cnc(NCC(C)(C)C(F)(F)F)cc2C(F)(F)F)s1 [Example 122, 4-((1s,4s)-7-Azabicyclo[2.2.1]heptane-7-carbonyl)-N-(2-hydroxy-2-methylpropyl)-5-(6-((3,3,3-trifluoro-2,2-dimethylpropyl)amino)-4-(trifluoromethyl)pyridin-3-yl)thiazole-2-carboxamide] | 1.7 | – | 0.02
C[C@H](NC(=O)c1nc(C(=O)N2CCC[C@@H]2C)c(-c2cnc(N[C@@H](C)C(F)(F)F)cc2C(F)F)s1)C(C)(C)O [Example 199, 5-(4-(Difluoromethyl)-6-(((S)-1,1,1-trifluoropropan-2-yl)amino)pyridine-3-yl)-N—((S)-3-hydroxy-3-methylburan-2-yl)-4-((S)-2-methylpyrrolidine-1-carbonyl)thiazole-2-carboxamide] | 5.4 | 0.1 | –
C[C@H](Nc1cc(C(F)(F)F)c(-c2sc(C(=O)NCC(C)(C)O)nc2C(=O)N2CCC[C@@H]2C)cn1)C(F)(F)F [Example 78, N-(2-Hydroxy-2-methylpropyl)-4-((S)-2-methylpyrrolidine-1-carbonyl)-5-(4-(trifluoromethyl)-6-(((S)-1,1,1-trifluoropropan-2-yl)amino)pyridin-3-yl)thiazole-2-carboxamide] | 3.2 | 0.014 | –
C[C@H]1CCCN1C(=O)c1nc(C(=O)NCc2n[nH]c(=O)o2)sc1-c1cnc(NC(C)(C)C)cc1C(F)(F)F [Example 305, (S)-5-(6-(tert-Butylamino)-4-(trifluoromethyl)pyridin-3-yl)-4-(2-methylpyrrolidine-1-carbonyl)-N-((5-oxo-4,5-dihydro-1,3,4-oxadiazol-2-yl)methyl)thiazole-2-carboxamide] | 4.9 | 0.089 | –
C[C@H]1CCCN1C(=O)c1nc(C(=O)NC[C@@H](O)C(C)(C)O)sc1-c1cnc(NC(C)(C)C)cc1C(F)(F)F (single isomer, unassigned) [Example 243, 5-(6-(tert-Butylamino)-4-(trifluoromethyl)pyridin-3-yl)-N—((R*)-2,3-dihydroxy-3-methylbutyl)-4-((S)-2-methylpyrrolidine-1-carbonyl)thiazole-2-carboxamide] | 7.3 | 0.063 | –

Further lines, with some results ahead:

Kd [1] [nM] | IC50 [2, 3] [µM] | Compound | IC50 [2, 4] [µM]
1.5 | 0.013 | C[C@H](Nc1cc(C(F)F)c(-c2sc(C(=O)NCC(C)(C)O)nc2C(=O)N2CCCC[C@@H]2C)cn1)C(F)(F)F [Example 144] | –
1.9 | 0.022 | C[C@H]1CC(F)(F)CN1C(=O)c1nc(C(=O)NCC(C)(C)O)sc1-c1cnc(NCC(C)(C)C)cc1C(F)F [Example 115, (S)-4-(4,4-Difluoro-2-methylpyrrolidine-1-carbonyl)-5-(4-(difluoromethyl)-6-(neopentylamino)pyridin-3-yl)-N-(2-hydroxy-2-methylpropyl)thiazole-2-carboxamide] | –
1.8 | 0.017 | CC[C@H](Nc1cc(C(F)(F)F)c(-c2sc(C(=O)NCC(C)(C)O)nc2C(=O)N2CCC[C@@H]2C)cn1)C(F)(F)F [Example 111, N-(2-Hydroxy-2-methylpropyl)-4-((S)-2-methylpyrrolidine-1-carbonyl)-5-(6-(((S)-1,1,1-trifluorobutan-2-yl)amino)-4-(trifluoromethyl)pyridin-3-yl)thiazole-2-carboxamide] | –
1.1 | 0.011 | C[C@H](NC(=O)c1nc(C(=O)N2CCC[C@@H]2C)c(-c2cnc(NC(C)(C)C)cc2C(F)(F)F)s1)C(C)(C)O [Example 336, 5-[6-(tert-Butylamino)-4-(trifluoromethyl)-3-pyridyl]-N-[(1S)-2-hydroxy-1,2-dimethyl-propyl]-4-[(2S)-2-methylpyrrolidine-1-carbonyl]thiazole-2-carboxamide] | –
1.8 | 0.081 | C[C@H]1CCCN1C(=O)c1nc(C(=O)NCC(C)(C)O)sc1-c1cnc(NC2CCCC2)cc1C(F)(F)F [Example 38, (S)-5-(6-(Cyclopentylamino)-4-(trifluoromethyl)pyridin-3-yl)-N-(2-hydroxy-2-methylpropyl)-4-(2-methylpyrrolidine-1-carbonyl)thiazole-2-carboxamide] | –
0.5 | 0.0098 | C[C@H](Nc1cc(C(F)(F)F)c(-c2sc(C(=O)NCC(C)(C)O)nc2C(=O)N2CCCC[C@@H]2C)cn1)C(F)(F)F [Example 47, N-(2-Hydroxy-2-methylpropyl)-4-((S)-2-methylpiperidine-1-carbonyl)-5-(4-(trifluoromethyl)-6-(((S)-1,1,1-trifluoropropan-2-yl)amino)pyridin-3-yl)thiazole-2-carboxamide] | –
0.68 | 0.0055 | C[C@H]1CC(F)(F)CN1C(=O)c1nc(C(=O)NCC(C)(C)O)sc1-c1cnc(NC2(C)CCC2)cc1C(F)(F)F [Example 141, (S)-4-(4,4-Difluoro-2-methylpyrrolidine-1-carbonyl)-N-(2-hydroxy-2-methylpropyl)-5-(6-((1-methylcyclobutyl)amino)-4-(trifluoromethyl)pyridin-3-yl)thiazole-2-carboxamide] | –
1.4 | 0.076 | CC[C@H](Nc1cc(C(F)F)c(-c2sc(C(=O)NCC(C)(C)O)nc2C(=O)N2CC(F)(F)C[C@@H]2C)cn1)C(F)(F)F [Example 90, 4-((S)-4,4-Difluoro-2-methylpyrrolidine-1-carbonyl)-5-(4-(difluoromethyl)-6-(((S)-1,1,1-trifluorobutan-2-yl)amino)pyridin-3-yl)-N-(2-hydroxy-2-methylpropyl)thiazole-2-carboxamide] | –
1.3 | 0.025 | C[C@H]1CCCN1C(=O)c1nc(C(=O)NCC(C)(C)O)sc1-c1cnc(NCC(C)(C)C)cc1C(F)(F)F [Example 87, (S)—N-(2-Hydroxy-2-methylpropyl)-4-(2-methylpyrrolidine-1-carbonyl)-5-(6-(neopentylamino)-4-(trifluoromethyl)pyridin-3-yl)thiazole-2-carboxamide] | –
